{"source": "ChEMBL document CHEMBL2331281", "about": "“Isolation of ciliatamide D from a marine sponge Stelletta sp. and a reinvestigation of the configuration of ciliatamide A” (J Nat Prod, 2013)", "key": {"[1]": {"target": "Cathepsin B (Homo sapiens) (UniProt P07858)", "assay": "Inhibition of cathepsin B (unknown origin) using Z-Arg-Arg-AMC as substrate at 50 ug/ml after 30 mins by fluorescence assay"}, "[2]": {"tested_on": "HeLa", "assay": "Cytotoxicity against human HeLa cells at 50 ug/ml after 72 hrs by MTT assay", "assay_type": "functional, cell-based"}}, "note": "The source made the active and inactive calls. The rule behind the calls is not given here."}
{"smiles": "C=CCCCCCCCC(=O)N(C)[C@@H](CC[S+](C)[O-])C(=O)N[C@H]1CCCCNC1=O", "note": "(mixture of isomers)", "values": [{"measurement": "inhibition", "setting": "[1]", "result": "inactive"}, {"measurement": "Activity", "setting": "[2]", "result": "inactive"}]}
